One assay deals with HIV-1 (H9IIIB strain). Nature of the assay: Antiviral acute infection assay in cell culture (Spread). Format: cell-based. The note with it: Human immunodeficiency virus 1, T-lymphoid, HIV-1 H9IIIB infection of MT-4 human T-lymphoid cells in 10% FBS; mean of at least two independent experiments. From the text: Antiviral Assays in Cell Culture (“Spread”)
Acute Infection Assay (“Spread”) data were generated using HIV-1 (H9IIIB strain) infection of MT-4 human T-lymphoid cells in 10% FBS, and according to the methods disclosed by J. P. Vacca et al, “L-735,524: An orally bioavailable human immunodeficiency virus type 1 protease inhibitor,” Proc. Natl. Acad. Sci. USA, Vol. 91, pp. 4096-4100 (April 1994).

A further assay concerns the target T1, wildtype HIV-1 protease (Human immunodeficiency virus type 1 group M subtype B, UniProt P04585).
T1 construct: the wildtype HIV-1 protease (which was expressed in Escherichia coli); made in house; host or cells: Escherichia coli
As to the kind of experiment: Assay for inhibition of microbial expressed HIV protease (Pepcleav). Format: biochemical. The note with it: wild type HIV-1 protease expressed in E. coli, peptide substrate, pH 5.5; mean of at least two independent experiments; read-out: Pepcleav. The method in brief:
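E. coli-expressed wild-type HIV-1 protease (20 pM) preincubated 30 min at room temperature with inhibitor in pH 5.5 sodium acetate/NaCl/BSA buffer, then 400 μM Val-Ser-Gln-Asn-(βnaphthyl)Ala-Pro-Ile-Val added for 1 h at 30 °C. Quenched with formic acid; product quantified by LC-MS/MS peak area, indinavir internal standard.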

The structures appear in SMILES notation.

In the assay on HIV-1 (H9IIIB strain), `N[C@H](C(=O)Nc1cncc(F)c1CC[C@@H]1CNC(COC(=O)NCC(F)(F)F)CO1)[C@@H](c1ccc(F)cc1)c1cc(F)cc(F)c1` (stereo in doubt) [Example 90, (2S,3S)-2-Amino-3-(4-fluorophenyl)-3-(3,5-difluorophenyl)-N-(5-fluoro-4-(2-((2R,5R)-5-(2,2,2-trifluoroethylaminocarbonyloxymethyl)morpholine-2-yl)ethyl)pyridin-3-yl)propanamide] gave an EC50 of 0.049 µM. The IC50 at wildtype HIV-1 protease stood at 0.0024 µM.

`CCNC(=O)OC[C@@H]1CO[C@H](CCc2c(F)cncc2NC(=O)[C@@H](N)C(c2ccc(F)cc2)c2ccc(F)cc2)CN1` [Example 207, N-(4-{2-[(2R,5S)-5-{[(ethylcarbamoyl)oxy]methyl}morpholin-2-yl]ethyl}-5-fluoropyridin-3-yl)-4-fluoro-β-(4-fluorophenyl)-L-phenylalaninamide]: in the assay with HIV-1 (H9IIIB strain), the response was half-maximal at 0.11 µM (EC50). For the same molecule, the IC50 on wildtype HIV-1 protease is 0.02 µM.

Turning to `N[C@H](C(=O)Nc1cncc(F)c1CC[C@@H]1CN[C@H](CO)CO1)[C@@H](c1ccccc1)c1ccnc2ccccc12` [Example 249, (βS)-N-(5-fluoro-4-{2-[(2R,5R)-5-(hydroxymethyl)morpholin-2-yl]ethyl}pyridin-3-yl)-β-quinolin-4-yl-L-phenylalaninamide], in the assay with HIV-1 (H9IIIB strain), the EC50 came out at 3 µM. Also, the IC50 on wildtype HIV-1 protease stood at 0.0094 µM.

Take `COC(=O)N[C@H](C(=O)Nc1cncc(F)c1CC[C@@H]1CN[C@H](COC(=O)NCC(F)(F)F)CO1)[C@H](c1ccc(F)cc1)c1cccc(F)c1` [Example 282, (βR)-4-fluoro-β-(3-fluorophenyl)-N-(5-fluoro-4-{2-[(2R,5S)-5-({[(2,2,2-trifluoroethyl)carbamoyl]oxy}methyl)morpholin-2-yl]ethyl}pyridin-3-yl)-Nα-(methoxycarbonyl)-L-phenylalaninamide]: in the assay with HIV-1 (H9IIIB strain), the concentration giving a half-maximal response (EC50) amounted to 0.025 µM. The IC50 on wildtype HIV-1 protease worked out at 0.0037 µM.

In the case of `COC(=O)N[C@H](C(=O)Nc1cncc(F)c1CC[C@@H]1CN[C@H](COC(=O)NCC(F)(F)F)CO1)[C@H](c1ccc(F)cc1)c1ccc(Br)cc1` [Example 298, (βR)-β-(4-bromophenyl)-4-fluoro-N-(5-fluoro-4-{2-[(2R,5S)-5-({[(2,2,2-trifluoroethyl)carbamoyl]oxy}methyl)morpholin-2-yl]ethyl}pyridin-3-yl)-Nα-(methoxycarbonyl)-L-phenylalaninamide], the EC50 in the assay with HIV-1 (H9IIIB strain) amounted to 0.014 µM. The IC50 at wildtype HIV-1 protease came out at 0.0003 µM.

`O=C(NCC(F)(F)F)OC[C@@H]1CO[C@H](CCc2c(F)cncc2NC(=O)[C@@H](NC(=O)OC2CCCC2)C(c2ccc(F)cc2)c2ccc(F)cc2)CN1` [Example 278, Nα-[(cyclopentyloxy)carbonyl]-4-fluoro-β-(4-fluorophenyl)-N-(5-fluoro-4-{2-[(2R,5S)-5-({[(2,2,2-trifluoroethyl)carbamoyl]oxy}methyl)morpholin-2-yl]ethyl}pyridin-3-yl)-L-phenylalaninamide] yielded a 50% effective concentration (EC50) with HIV-1 (H9IIIB strain) of 0.038 µM. In addition, on wildtype HIV-1 protease, the IC50 was determined as 0.0032 µM.

For the molecule `O=C(C[C@H](c1ccc(F)cc1)c1cncc(F)c1)Nc1cccc(F)c1CC[C@@H]1CN[C@H](COC(=O)NCC(F)(F)F)CO1` [Example 161, {(3S,6R)-6-[2-(2-fluoro-6-{[(3R)-3-(4-fluorophenyl)-3-(5-fluoropyridin-3-yl)propanoyl]amino}phenyl)ethyl]morpholin-3-yl}methyl (2,2,2-trifluoroethyl)carbamate], in the assay with HIV-1 (H9IIIB strain), the response was half-maximal at 0.07 µM (EC50). For the same molecule, the IC50 on wildtype HIV-1 protease came out at 0.012 µM.

On to `COC(=O)N[C@H](C(=O)Nc1cccc(F)c1CC[C@@H]1CN[C@H](COC(=O)NCC(F)(F)F)CO1)C(c1ccc(F)cc1)c1ccc(F)cc1` [Example 285], for which the concentration for a half-maximal effect (EC50) with HIV-1 (H9IIIB strain) is 0.021 µM. Also, at wildtype HIV-1 protease, the IC50 stood at 0.013 µM.

In turn, `N[C@H](C(=O)Nc1cccc(F)c1CC[C@@H]1CN[C@H](COC(=O)NCC(F)(F)F)CO1)[C@H](c1ccccc1)c1ccc(F)c(F)c1` [Example 269, (βR)-β-(3,4-difluorophenyl)-N-(3-fluoro-2-{2-[(2R,5S)-5-({[(2,2,2-trifluoroethyl)carbamoyl]oxy}methyl)morpholin-2-yl]ethyl}phenyl)-L-phenylalaninamide] came in with an EC50 with HIV-1 (H9IIIB strain) of 0.025 µM. For the same molecule, at wildtype HIV-1 protease, the IC50 turned out to be 0.0027 µM.

(Values after US9315475B2 (MERCK SHARP & DOHME CORP., priority 2011, dated 2016).)
